In US20040192624A1, “Method for treating a disease, disorder or adverse effect caused by an elevated serum concentration of an UGT1A1 substrate” (priority 2003, published 2004):

How the values were obtained:
[1] = system: bilirubin conjugation in human microsomes; details: in vitro system of human microsomes; cited from earlier work
UGT1A1 isoform = biological target: T1, UGT1A1 isoform (Homo sapiens, UniProt P22309); details: human cells transfected with the UGT1A1 isoform; cited from earlier work
T1 sequence (P22309 26-533): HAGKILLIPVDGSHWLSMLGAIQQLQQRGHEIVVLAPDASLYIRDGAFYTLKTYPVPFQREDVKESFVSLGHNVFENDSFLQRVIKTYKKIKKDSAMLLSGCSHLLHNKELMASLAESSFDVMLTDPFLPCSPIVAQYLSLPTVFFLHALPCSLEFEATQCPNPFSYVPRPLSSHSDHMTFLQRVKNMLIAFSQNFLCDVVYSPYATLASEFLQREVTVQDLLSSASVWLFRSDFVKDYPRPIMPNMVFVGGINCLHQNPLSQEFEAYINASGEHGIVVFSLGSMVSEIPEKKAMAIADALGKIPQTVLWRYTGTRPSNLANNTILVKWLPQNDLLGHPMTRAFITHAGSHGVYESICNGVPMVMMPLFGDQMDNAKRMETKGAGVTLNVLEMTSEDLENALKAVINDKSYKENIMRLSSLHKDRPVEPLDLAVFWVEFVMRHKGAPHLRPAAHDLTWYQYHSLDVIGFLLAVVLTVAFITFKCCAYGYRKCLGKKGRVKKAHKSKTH

[2] = system: bilirubin-conjugating activity; details: indinavir treatment; cited from earlier work
[3] = Ethinylestradiol pharmacokinetics alone and with ritonavir in healthy female volunteers; assay type: in vivo, human; details: for t1/2: ethinylestradiol terminal phase, reported as harmonic mean
Procedure: This was an open-label, single-center study in healthy female volunteers who had not received an oral contraceptive for a minimum of six months prior to study start. Subjects received the first dose of oral contraceptive containing 50 μg of ethinyl estradiol on Day 1. […] On Day 15, 300 mg q12h was administered, 400 mg q12h was given on Day 16, and 500 mg q12h was administered thereafter. […] Blood samples for ethinylestradiol concentrations were collected for 48 h after each of the oral contraceptive doses.
Ethinylestradiol was supplied as Demulen@ 1/50-21 tablets (G.D. Searle & Co.) containing 50 μg of ethinylestradiol and 1 mg of ethynodiol diacetate and was administered at 8:00 a.m. on Day 1 and Day 29 with approximately 240 mL of water and within 15 minutes of a meal or snack.
Subjects were confined for 64 hours from Day -1 (day prior to the initial dose) through the first 48 hour blood collection (morning of Day 3) and for 64 hours from Day 28 through the second 48 hour blood collection (morning of Day 31). In addition, subjects came to the clinical testing unit as outpatients for meals, dosing and other study activities twice daily for a total of 14 consecutive days, starting on Day 15. Strenuous activity during confinement was not permitted. During confinement, subjects abstained from all food and beverages except for the scheduled meals and snacks provided in the study. Water was available ad libitum. All meals were standardized with regard to content during confinement. Breakfast, lunch, and dinner were served at approximately 7:30 a.m., 1:00 p.m. and 7:30 p.m. and snacks were provided at approximately 10:00 p.m., except on Days-1 and 28 when the snack was served at 9:45 p.m. An 8 hour fast was required prior to all blood collections for clinical laboratory analyses. The sequence of starting breakfast and dinner on each dosing day during confinement was maintained to the minute such that the time intervals relative to dosing were the same among all subjects.
Blood samples (7 mL) were collected for serum ethinyl estradiol concentrations at the following times relative to the dose on Day 1 and Day 29: prior to (0 h) and at 0.5, 1, 2, 3, 4, 6, 8, 10, 12, 18, 24, 30, 36, and 48 h post-dose. […] All plasma and serum samples were packed with dry ice and shipped to the analytical sites.
Analysis of serum samples for determination of ethinyl estradiol was performed at Pharmaco LSR, Richmond, Va. Ethinylestradiol serum concentrations were determined using a gas chromatography/mass spectrometry (GC/MS) method. 17α-ethinylestradiol and its corresponding isotopically labeled internal standard were isolated from human serum by buffering the serum to pH 8.6 and then extracting with an ethyl ether/methylene chloride mixture. The organic layer was exchanged into aqueous base, washed with hexane and then acidified and extracted with methylene chloride. The extract was dried with sodium carbonate, evaporated and derivatized. The derivatized extract was stored at −20° C. until analysis. Analysis was by capillary GC/MS using negative chemical ionization with selected ion monitoring. This method has been validated over 17α-ethinylestradiol concentrations ranging from 2.00 to 256 pg/mL for a 1.0 mL serum volume, with a minimum quantitation limit of 2.00 pg/mL.
Ethinylestradiol pharmacokinetic parameters were estimated following two single doses, on Day 1 and Day 29, using noncompartmental methods. The pharmacokinetic parameters were calculated using the intended sampling times; all samples were collected within 10% of intended sampling times. Maximal plasma concentration (Cmax,) and time to reach Cmax (Tmax) were obtained directly from individual concentration vs. time profiles. […]

[4] = system: UDP-glucuronosyltransferase 1 family, member 1; test: Rat liver microarray (Affymetrix Rat U34), induction of probe sequences by ritonavir; assay type: in vivo, Sprague-Dawley rats; details: 3-Day Studies
[5] = system: 3-methylcholanthrene-inducible UDP-glucuronosyltransferase; test: as above; assay type: in vivo, Sprague-Dawley rats; details: 3-Day Studies, probe sequence 4 of 5, rat liver
[6] = system: UDP-glucuronosyltransferase 1A (UGT1A); test: Rat liver microarray, all 5 UGT1A probe sets; assay type: in vivo, Sprague-Dawley rats; details: rats, dose levels of 100 mg/kg and higher, after 1 and 3 days of treatment
[7] = system: UDP glucuronosyltransferase, exon 1.; test: Rat liver microarray (Affymetrix Rat U34), induction of probe sequences by ritonavir; details: 3-Day Studies, probe sequence 5 of 5, rat liver
UGT1A1 = test: Hepatic 17α-ethinylestradiol glucuronidation activity in liver microsomes of treated rats; details: both male and female rats
[8] = female, human, serum, po, 50 μg

In the case of `COC(=O)N[C@H](C(=O)N[C@@H](Cc1ccccc1)[C@@H](O)CN(Cc1ccc(-c2ccccn2)cc1)NC(=O)[C@@H](NC(=O)OC)C(C)(C)C)C(C)(C)C` [atazanavir], the “inhibition of bilirubin conjugation” value [1] is listed as “micromolar range” and the “inhibition of bilirubin conjugation” value (UGT1A1 isoform) is listed as “micromolar range”.
In the case of `CC(C)(C)NC(=O)[C@@H]1CN(Cc2cccnc2)CCN1C[C@@H](O)C[C@@H](Cc1ccccc1)C(=O)N[C@H]1c2ccccc2C[C@H]1O` [indinavir], the “cause of elevations in serum-unconjugated bilirubin” value [2] is listed as “direct inhibition of bilirubin-conjugating activity”.
`C#C[C@]1(O)CC[C@H]2[C@@H]3CCc4cc(O)ccc4[C@H]3CC[C@@]21C` [Ethinylestradiol, 17α-ethinylestradiol] showed a t1/2 ([3]; alone Day 1, with ritonavir 500 mg q12h Day 29) of 17.0 h, a t1/2 ([3]; alone Day 1, with ritonavir 500 mg q12h Day 29, listed as ethinyl estradiol) of 17.0 h and a half-life ([3]; female, human, serum, oral, 500 mg) of 17 h. It also gave an AUC(0-inf) [3, 8] of 1.67 ± 0.377 ng·h/mL, a Cmax [3, 8] of 0.104 ± 0.024 ng/mL and a Tmax ([3]; female, human, serum, po, 50 μg, serum ethinylestradiol after single oral contraceptive dose (50 μg), Mean ± SD, n = 23, alone Day 1, with ritonavir 500 mg q12h Day 29) of about 4 h.
With `CC(C)c1nc(CN(C)C(=O)N[C@H](C(=O)N[C@@H](Cc2ccccc2)C[C@H](O)[C@H](Cc2ccccc2)NC(=O)OCc2cncs2)C(C)C)cs1` [ritonavir] the “Fold change, UDP-glucuronosyltransferase 1 family, member 1” value (“Fold change … member 1” below) ([4]; 75 mg/kg, probe sequence 1 of 5, rat liver) was 1.56, the “Fold change … member 1” value ([4]; 75 mg/kg, probe sequence 2 of 5, rat liver) was 1.38 and the “Fold change … member 1” value ([4]; 75 mg/kg, probe sequence 3 of 5, rat liver) was 1.57. For the same molecule, the “Fold change … member 1” value ([4]; 100 mg/kg, probe sequence 1 of 5, rat liver) was 1.67, the “Fold change … member 1” value ([4]; 100 mg/kg, probe sequence 2 of 5, rat liver) was 1.46 and the “Fold change … member 1” value ([4]; 100 mg/kg, probe sequence 3 of 5, rat liver) was 1.61. The “Fold change … member 1” value ([4]; 125 mg/kg, probe sequence 1 of 5, rat liver) was 1.54, the “Fold change … member 1” value ([4]; 125 mg/kg, probe sequence 2 of 5, rat liver) was 1.42 and the “Fold change … member 1” value ([4]; 125 mg/kg, probe sequence 3 of 5, rat liver) was 1.65. For the same molecule, the “Fold change, 3-methylcholanthrene-inducible UDP-glucuronosyltransferase” value ([5]; 75 mg/kg) was 1.97, the “Fold change, 3-methylcholanthrene-inducible UDP-glucuronosyltransferase” value ([5]; 100 mg/kg) was 2.26 and the “Fold change, 3-methylcholanthrene-inducible UDP-glucuronosyltransferase” value ([5]; 125 mg/kg) was 2.25. For the same molecule, the “UGT1A levels for all probe sets” value [6] was “consistent increase”, the “Fold change, UDP glucuronosyltransferase, exon 1.” value ([7]; 100 mg/kg) was 3.96 and the “Fold change, UDP glucuronosyltransferase, exon 1.” value ([7]; 125 mg/kg) was 5.06. For the same molecule, the “effect on glucuronidation of 17α-ethinylestradiol, a UGT1A1 substrate” value (UGT1A1) was “significantly increase”.
